Data as given in ChEMBL document CHEMBL1123842, “Structural modification study of mitoxantrone (DHAQ). Chloro-substituted mono- and bis[(aminoalkyl)amino]anthraquinones” (1987).

How the values were obtained:
[1] = test system: Colon adenocarcinoma cell line; experiment: In vitro cytotoxicity against Human colon adenocarcinoma cells was determined; type: functional
L1210 = experiment: In vitro cytotoxicity against L1210 leukemia cells was determined; type: functional; details: Mus musculus
P388 [2] = experiment: In vivo antineoplastic activity was determined in BDF1 mice implanted with P388 leukemia and activity is expressed as T/C at 100 mg/kg ip dose (Q4dx2 treatment); type: functional, Mus musculus; details: route intraperitoneal
P388 [3] = experiment: In vivo antineoplastic activity was determined in BDF1 mice implanted with P388 leukemia and activity is expressed as T/C at 200 mg/kg ip dose (Q4dx2 treatment); type: functional, Mus musculus; details: route intraperitoneal
P388 [4] = experiment: In vivo antineoplastic activity was determined in BDF1 mice implanted with P388 leukemia and activity is expressed as T/C at 400 mg/kg ip dose (Q4dx2 treatment); type: functional, Mus musculus; details: route intraperitoneal
P388 [5] = experiment: In vivo antineoplastic activity was determined in BDF1 mice implanted with P388 leukemia and activity is expressed as T/C at 80 mg/kg ip dose (Q4dx2 treatment); type: functional, Mus musculus; details: route intraperitoneal
P388 [6] = experiment: In vivo antineoplastic activity was determined in BDF1 mice implanted with P388 leukemia and activity is expressed as T/C at 40 mg/kg ip dose (Q4dx2 treatment); type: functional, Mus musculus; details: route intraperitoneal
P388 [7] = experiment: In vivo antineoplastic activity was determined in BDF1 mice implanted with P388 leukemia and activity is expressed as T/C at 60 mg/kg ip dose (Q1dx5 treatment); details: route intraperitoneal
P388 [8] = experiment: In vivo antineoplastic activity was determined in BDF1 mice implanted with P388 leukemia and activity is expressed as T/C at 30 mg/kg ip dose (Q1dx5 treatment); details: route intraperitoneal
P388 [9] = experiment: In vivo antineoplastic activity was determined in BDF1 mice implanted with P388 leukemia and activity is expressed as T/C at 120 mg/kg ip dose (Q1dx5 treatment); details: route intraperitoneal
P388 [10] = experiment: as above; details: route intraperitoneal; remark: listed apart in the source
B16 [11] = experiment: In vivo antineoplastic activity was determined in BDF1 mice implanted with B16 melanoma and activity expressed as T/C at 80 mg/kg ip dose (Q1Dx9 treatment); type: functional, Mus musculus; details: route intraperitoneal
B16 [12] = experiment: In vivo antineoplastic activity was determined in BDF1 mice implanted with B16 melanoma and activity expressed as T/C at 25 mg/kg ip dose (Q1Dx9 treatment); type: functional, Mus musculus; details: route intraperitoneal
B16 [13] = experiment: In vivo antineoplastic activity was determined in BDF1 mice implanted with B16 melanoma and activity expressed as T/C at 50 mg/kg ip dose (Q1Dx9 treatment); type: functional, Mus musculus; details: route intraperitoneal
B16 [14] = experiment: In vivo antineoplastic activity was determined in BDF1 mice implanted with B16 melanoma and activity expressed as T/C at 6.25 mg/kg ip dose (Q1Dx9 treatment); type: functional, Mus musculus; details: route intraperitoneal
B16 [15] = experiment: In vivo antineoplastic activity was determined in BDF1 mice implanted with B16 melanoma and activity expressed as T/C at 12.5 mg/kg ip dose (Q1Dx9 treatment); type: functional, Mus musculus; details: route intraperitoneal
B16 [16] = experiment: In vivo antineoplastic activity was determined in BDF1 mice implanted with B16 melanoma and activity expressed as T/C at 40 mg/kg ip dose (Q1Dx9 treatment); type: functional, Mus musculus; details: route intraperitoneal
B16 [17] = experiment: In vivo antineoplastic activity was determined in BDF1 mice implanted with B16 melanoma and activity expressed as T/C at 20 mg/kg ip dose (Q1Dx9 treatment); type: functional, Mus musculus; details: route intraperitoneal
B16 [18] = experiment: In vivo antineoplastic activity was determined in BDF1 mice implanted with B16 melanoma and activity expressed as T/C at 100 mg/kg ip dose (Q1Dx9 treatment); type: functional, Mus musculus; details: route intraperitoneal
B16 [19] = experiment: In vivo antineoplastic activity was determined in BDF1 mice implanted with B16 melanoma and activity expressed as T/C at 160 mg/kg ip dose (Q1Dx9 treatment); type: functional, Mus musculus; details: route intraperitoneal
P388 [20] = experiment: In vivo antineoplastic activity was determined in BDF1 mice implanted with P388 leukemia and activity is expressed as T/C at 6.25 mg/kg ip dose (Q4dx5 treatment); type: functional, Mus musculus; details: route intraperitoneal
P388 [21] = experiment: In vivo antineoplastic activity was determined in BDF1 mice implanted with P388 leukemia and activity is expressed as T/C at 12.5 mg/kg ip dose (Q4dx5 treatment); type: functional, Mus musculus; details: route intraperitoneal
P388 [22] = experiment: In vivo antineoplastic activity was determined in BDF1 mice implanted with P388 leukemia and activity is expressed as T/C at 25 mg/kg ip dose (Q1dx5 treatment); details: route intraperitoneal
P388 [23] = experiment: In vivo antineoplastic activity was determined in BDF1 mice implanted with P388 leukemia and activity is expressed as T/C at 50 mg/kg ip dose (Q1dx5 treatment); details: route intraperitoneal
P388 [24] = experiment: In vivo antineoplastic activity was determined in BDF1 mice implanted with P388 leukemia and activity is expressed as T/C at 100 mg/kg ip dose (Q1dx5 treatment); details: route intraperitoneal
P388 [25] = experiment: In vivo antineoplastic activity was determined in BDF1 mice implanted with P388 leukemia and activity is expressed as T/C at 0.12 mg/kg; type: functional, Mus musculus
P388 [26] = experiment: In vivo antineoplastic activity was determined in BDF1 mice implanted with P388 leukemia and activity is expressed as T/C at 0.25 mg/kg; type: functional, Mus musculus
P388 [27] = experiment: In vivo antineoplastic activity was determined in BDF1 mice implanted with P388 leukemia and activity is expressed as T/C at 0.5 mg/kg; type: functional, Mus musculus
P388 [28] = experiment: In vivo antineoplastic activity was determined in BDF1 mice implanted with P388 leukemia and activity is expressed as T/C at 1 mg/kg; type: functional, Mus musculus
P388 [29] = experiment: In vivo antineoplastic activity was determined in BDF1 mice implanted with P388 leukemia and activity is expressed as T/C at 0.06 mg/kg; type: functional, Mus musculus
P388 [30] = experiment: In vivo antineoplastic activity was determined in BDF1 mice implanted with P388 leukemia and activity is expressed as T/C at 2 mg/kg; type: functional, Mus musculus
P388 [31] = experiment: In vivo antineoplastic activity was determined in BDF1 mice implanted with P388 leukemia and activity is expressed as T/C at 10 mg/kg ip dose (Q4dx2 treatment); type: functional, Mus musculus; details: route intraperitoneal
P388 [32] = experiment: In vivo antineoplastic activity was determined in BDF1 mice implanted with P388 leukemia and activity is expressed as T/C at 160 mg/kg ip dose (Q4dx2 treatment); type: functional, Mus musculus; details: route intraperitoneal
P388 [33] = experiment: In vivo antineoplastic activity was determined in BDF1 mice implanted with P388 leukemia and activity is expressed as T/C at 20 mg/kg ip dose (Q4dx2 treatment); type: functional, Mus musculus; details: route intraperitoneal
P388 [34] = experiment: In vivo antineoplastic activity was determined in BDF1 mice implanted with P388 leukemia and activity is expressed as T/C at 50 mg/kg ip dose (Q4dx2 treatment); type: functional, Mus musculus; details: route intraperitoneal
P388 [35] = experiment: Antineoplastic activity was determined in BDF1 mice in vivo implanted with P388 leukemia and t/c was determined at 40 mg/kg ip dose (Q4dx9 treatment); type: functional, Mus musculus; details: route intraperitoneal
P388 [36] = experiment: In vivo antineoplastic activity was determined in BDF1 mice implanted with P388 leukemia and activity is expressed as T/C at 80 mg/kg ip dose (Q1dx9 treatment); details: route intraperitoneal
P388 [37] = experiment: In vivo antineoplastic activity was determined in BDF1 mice implanted with P388 leukemia and activity is expressed as T/C at 160 mg/kg ip dose (Q1dx9 treatment); details: route intraperitoneal
P388 [38] = experiment: In vivo antineoplastic activity was determined in BDF1 mice implanted with P388 leukemia and activity is expressed as T/C at 100 mg/kg ip dose (Q4dx5 treatment); type: functional, Mus musculus; details: route intraperitoneal
P388 [39] = experiment: In vivo antineoplastic activity was determined in BDF1 mice implanted with P388 leukemia and activity is expressed as T/C at 200 mg/kg ip dose (Q1dx5 treatment); details: route intraperitoneal

CN(C)CCNc1ccc(Cl)c2c1C(=O)c1c(Cl)ccc(NCCN(C)C)c1C2=O
CC50 [1]: 229 nM
CC50 (L1210): 385 nM
T/C (P388 [2]): 115
T/C (P388 [3]): 128
T/C (P388 [4]): 123

CN(C)CCNc1ccc(Cl)c2c1C(=O)c1c(Cl)ccc(O)c1C2=O
CC50 (L1210): 1130 nM
T/C (P388 [5]): 117
T/C (P388 [6]): 103

CN(C)CCCNc1ccc(Cl)c2c1C(=O)c1c(O)ccc(O)c1C2=O
CC50 (L1210): 265 nM
T/C (P388 [7]): 123
T/C (P388 [8]): 109
T/C (P388 [9]): 129

CN(C)CCNc1ccc(O)c2c1C(=O)c1c(Cl)ccc(Cl)c1C2=O
CC50 [1]: 522 nM
CC50 (L1210): 86.9 nM
T/C (P388 [7]): 150
T/C (P388 [8]): 136
T/C (P388 [10]): 176

O=C1c2c(O)ccc(NCCNCCO)c2C(=O)c2c(Cl)ccc(Cl)c21
T/C (B16 [11]): 271
T/C (B16 [12]): 199
T/C (B16 [13]): 252
T/C (B16 [14]): 166
T/C (B16 [15]): 172
T/C (B16 [16]): 231
T/C (B16 [17]): 224
T/C (B16 [18]): 270
T/C (B16 [19]): 326
CC50 (L1210): 86.6 nM
T/C (P388 [20]): 154
T/C (P388 [21]): 146
T/C (P388 [22]): 203
T/C (P388 [23]): 180
T/C (P388 [24]): 219

O=C1c2c(O)ccc(Cl)c2C(=O)c2c(NCCNCCO)ccc(Cl)c21
T/C (P388 [3]): 96
T/C (P388 [4]): 111

O=C1c2c(O)ccc(O)c2C(=O)c2c(NCCNCCO)ccc(NCCNCCO)c21 [MITOXANTRONE]
T/C (P388 [25]): 200
T/C (P388 [26]): 280
T/C (P388 [27]): 299
T/C (P388 [28]): 277
T/C (P388 [29]): 208
T/C (P388 [30]): 280

O=C1c2c(O)ccc(O)c2C(=O)c2c(NCCNCCO)ccc(Cl)c21
CC50 (L1210): 398 nM
T/C (P388 [5]): 154
T/C (P388 [31]): 113
T/C (P388 [32]): 184
T/C (P388 [33]): 125
T/C (P388 [6]): 130

CN(C)CCNc1ccc(Cl)c2c1C(=O)c1c(O)ccc(O)c1C2=O
CC50 (L1210): 36.2 nM
T/C (P388 [7]): 137
T/C (P388 [8]): 121
T/C (P388 [9]): 169

O=C1c2cccc(NCCNCCO)c2C(=O)c2cccc(Cl)c21
CC50 [1]: 1400 nM
CC50 (L1210): 1170 nM
T/C (P388 [2]): 100
T/C (P388 [3]): 105

CN(C)CCNc1ccc(Cl)c2c1C(=O)c1c(O)ccc(Cl)c1C2=O
CC50 (L1210): 176 nM
T/C (P388 [3]): 113
T/C (P388 [4]): 125

CN(C)CCNc1ccc(NCCN(C)C)c2c1C(=O)c1c(Cl)ccc(Cl)c1C2=O
T/C (B16 [12]): 141
T/C (B16 [13]): 133
T/C (B16 [14]): 117
T/C value (B16 [15]): 143
CC50 [1]: 130 nM
CC50 (L1210): 117 nM
T/C (P388 [2]): 120
T/C (P388 [3]): 117
T/C (P388 [34]): 110

O=C1c2cccc(Cl)c2C(=O)c2c(NCCNCCO)cccc21
T/C (P388 [35]): 116
T/C (P388 [36]): 124
T/C (P388 [37]): 120

CN(C)CCNc1ccc(Cl)c2c1C(=O)c1c(NCCN(C)C)ccc(Cl)c1C2=O
CC50 (L1210): 1670 nM
T/C (P388 [38]): 113
T/C (P388 [39]): 119
